Legend:
[1] = tested on: chemically regulatable chimeric genes coding for GUS, AHAS or BT; experiment: Primer extension assay for mRNA of chemically regulatable chimeric genes; type: in vivo; conditions: callus or regenerated plant material from transgenic plants; level proportional to amount of regulator applied
Procedure: 50 g of total RNA is lyophilized in a 500 l Eppendorf tube. The RNA is resuspended in 30 l of radiolabeled probe solution and heated to 70′ C. for 10 minutes. The tube is slowly cooled to 37° C. and allowed to incubate overnight. Without removing the tube from the 37° C. water bath, 2 l of 10×reverse-transcriptase buffer (500 mM Tris-HCl, pH 7.5, 400 mM KCl, 30 mM MgCl2), 1 l 5 mg/ml bovine serum albumin, 5 l 100 mM dithiothreitol, 5 l 10×dNTPs (10 mM of each dNTP in H2O), 3 l H 20, 2 l RNasin (80 units), and 2 l reverse transcriptase (400 units) are added and the reaction is incubated at 37° C. for 30 minutes. To stop the reaction, 5 l of 3 M sodium acetate, pH 5, and 150 l absolute ethanol are added. The tube is left at −20° C. for 30 minutes, the precipitate is collected by centrifugation, washed with 80% ethanol and allowed to air-dry. The precipitate is resuspended in 10-20 l of loading dye (90% formamide, 0.05% bromophenol blue, 0.05% xylene cyanol, 1 mM EDTA) and the extension products are separated on a 6% sequencing gel (Maniatis, T. et al., supra). Extension products are visualized by autoradiography.
Plant materials induced and harvested as in Examples 140 to 142 are assayed for the induction of mRNA species by the isolation of RNA and the primer extension assay as described in Example 6.
The level of mRNA is proportional to the amount of regulator applied.

[2] = tested on: cucumber chitinase protein; experiment: Cucumber chitinase ELISA in transgenic plants carrying cucumber chitinase genomic constructs after leaf treatment; type: in vivo, tobacco; design: key: —: Indicates that sample has no detectable level of chitinase protein
Procedure: Once the transgenic plants are transferred to soil, they are grown 4-5 weeks before treatment. The following solutions are applied to the leaves with sterile paintbrushes:
3. Methyl benzo-1,2,3-thiadiazole-7-carboxylate. The solution is made by resuspending a wettable powder containing a formulation of the chemical with 25% active ingredient in sterile water at a concentration of 1 mg/ml.
4. Methyl 2,6-dichloroisonicotinate, prepared as above. Alternatively, 30 ul of 10 mM sodium phosphate buffer, pH 7.0, or 30 ul of the same buffer containing tobacco mosaic virus (50-100 pfu/30 ul) is applied to the leaves which have been sprinkled with carborundum. The buffers are distributed over the whole treated leaf by gentle rubbing.
The plants are allowed to continue to grow for seven days. The treated leaves are then harvested, frozen in liquid nitrogen and stored at −80° C. until they are assayed.
Frozen leaf tissue is ground in a mortar with a pestle in the presence of liquid nitrogen to produce a fine powder. 0.33 g of each tissue sample is added to 1 ml extraction buffer (50 mM Tris-HCl, pH 8.5, 0.2M 2-mercaptoethanol, 2 mM phenyl methyl sulfonyl fluoride, 2 mM benzamidine, 10 mM epsilon-aminocaproic acid, 1 mM leueptine) and the sample homogenized for one minute with an Ultra Turrax Mixer (shaft #S25N-8G, Tekmar Co. Cincinnati, Ohio). The samples are then centrifuged at 48,000×g for fifteen minutes at 4° C. and the supernatant removed from the pelleted material. The extracts are diluted at least 1:50 in ELISA diluent (101 mM sodium phosphate, pH 7.4, 140 mM sodium chloride, 0.05% Tween 20, 0.02% sodium azide, 1% BSA).
A microtiter plate is coated with monoclonal antibody specific to the cucumber chitinase protein at 2 ug/ml in borate-buffered saline (100 mM boric acid, 25mM sodium borate, 75 mM sodium chloride; pH 8.5) using 50 ul per well. The plate is incubated overnight at 4° C. The plate is washed with ELISA wash buffer (10 mM Tris-HCl, pH 8.0, 0.05% Tween 20, 3 mM sodium azide) and BSA blocking solution (10 mM sodium phosphate, pH 7.4, 140 mM sodium chloride, 0.02% sodium azide, 1% BSA) is added to completely cover each well. Incubation is for at least 30 minutes at room temperature.
The microtiter plate is washed with ELISA wash buffer and 50 ul of extract is added to the appropriate well. 50 ul of each of 10 chitinase protein standards (ranging from 0 ng/ml to 31.64 ng/ml) was also added to the appropriate well and the plate is incubated for two hours at 4° C. The plate is washed with ELISA wash buffer and 50 ul of rabbit polyclonal antibody to the cucumber chitainase protein (diluted 1:15,000 in ELISA diluent) is added to the well and incubated for one hour at 37° C. After washing with ELISA wash buffer, 50 ul of goat anti-rabbit conjugated to alkaline phosphatase (1:500 in ELISA diluent) is added to each well and incubated at 37° C. for one hour. The plate is then washed and 50 ul alkaline phosphatase substrate solution (0.6 mg/ml p-nitrophenyl phosphate in 0.5 mM magnesium chloride and 10% diethanolamine) is added to each well. After a 30 minute incubation at room temperature, 50 ul of 3N sodium hydroxide is added to each well to stop the reaction.
The plate is read at 405 nm and 492 nm on an HP Genenchem ELISA plate reader. The output values are expressed as A(405 nm)-A(492 nm)−0.092 to allow for correction of p-nitrophenyl phosphate as substrate. The chitinase standards for each plate are graphed logarithmically. The amount of chitinase protein in each sample is determined from the standard curve. If the amount of chitinase in any sample is close to the upper limit of the curve, the sample is assayed again at a greater dilution. Final results are expressed in the table below in ug chitinase per gram tissue.

O=C(O)c1ccccc1O [Salicylic acid, salicylic acid]
level of mRNA of the chimeric gene (GUS, AHAS or BT primer), primer extension assay [1]: elevated levels of mRNA | ELISA ASSAY RESULTS (ug chitinase/g tissue) ([2]; line Bam-1 (2001/BamChit), leaves harvested after seven days, water 0.066, buffer —): — | ELISA ASSAY RESULTS (ug chitinase/g tissue) ([2]; line Bam-3 (2001/BamChit), seven days, water —, buffer —): — | ELISA ASSAY RESULTS (ug chitinase/g tissue) ([2]; line Bam-4 (2001/BamChit), seven days, water —, buffer —): — | ELISA ASSAY RESULTS (ug chitinase/g tissue) ([2]; line Bam-8 (2001/BamChit), seven days, water —, buffer —): — | ELISA ASSAY RESULTS (ug chitinase/g tissue) ([2]; line Bam-9 (2001/BamChit), seven days, water —, buffer —): 0.522 ug chitinase/g tissue | ELISA ASSAY RESULTS (ug chitinase/g tissue) ([2]; line Bam-10 (2001/BamChit), seven days, water 0.059, buffer 0.084): 0.093 ug chitinase/g tissue | ELISA ASSAY RESULTS (ug chitinase/g tissue) ([2]; line Bam-12 (2001/BamChit), seven days, water —, buffer —): — | ELISA ASSAY RESULTS (ug chitinase/g tissue) ([2]; line Bam-14 (2001/BamChit), seven days, water —, buffer —): — | ELISA ASSAY RESULTS (ug chitinase/g tissue) ([2]; line Bam-15 (2001/BamChit), seven days, water —, buffer —): — | ELISA ASSAY RESULTS (ug chitinase/g tissue) ([2]; line Bam-16 (2001/BamChit), seven days, water —, buffer —): 0.690 ug chitinase/g tissue | ELISA ASSAY RESULTS (ug chitinase/g tissue) ([2]; line Bam-17 (2001/BamChit), seven days, water —, buffer —): — | ELISA ASSAY RESULTS (ug chitinase/g tissue) ([2]; line Bam-19 (2001/BamChit), seven days, water —, buffer —): 0.760 ug chitinase/g tissue | ELISA ASSAY RESULTS (ug chitinase/g tissue) ([2]; line Bam-21 (2001/BamChit), seven days, water —, buffer —): — | ELISA ASSAY RESULTS (ug chitinase/g tissue) ([2]; line Bam-23 (2001/BamChit), seven days, water —, buffer —): — | ELISA ASSAY RESULTS (ug chitinase/g tissue) ([2]; line Bam-24 (2001/BamChit), seven days, water —, buffer —): — | ELISA ASSAY RESULTS (ug chitinase/g tissue) ([2]; line Bam-25 (2001/BamChit), seven days, water —, buffer —): 0.522 ug chitinase/g tissue | ELISA ASSAY RESULTS (ug chitinase/g tissue) ([2]; line Bam-26 (2001/BamChit), seven days, water —, buffer —): — | ELISA ASSAY RESULTS (ug chitinase/g tissue) ([2]; line Nco-2 (2001/NcoChit), seven days, water —, buffer —): — | ELISA ASSAY RESULTS (ug chitinase/g tissue) ([2]; line Nco-3 (2001/NcoChit), seven days, water —, buffer —): — | ELISA ASSAY RESULTS (ug chitinase/g tissue) ([2]; line Nco-5 (2001/NcoChit), seven days, water —, buffer —): — | ELISA ASSAY RESULTS (ug chitinase/g tissue) ([2]; line Nco-8 (2001/NcoChit), seven days, water —, buffer —): — | ELISA ASSAY RESULTS (ug chitinase/g tissue) ([2]; line Nco-9 (2001/NcoChit), seven days, water —, buffer —): — | ELISA ASSAY RESULTS (ug chitinase/g tissue) ([2]; line Nco-10 (2001/NcoChit), seven days, water —, buffer —): — | ELISA ASSAY RESULTS (ug chitinase/g tissue) ([2]; line Nco-11 (2001/NcoChit), seven days, water —, buffer —): — | ELISA ASSAY RESULTS (ug chitinase/g tissue) ([2]; line Nco-15 (2001/NcoChit), seven days, water —, buffer —): — | ELISA ASSAY RESULTS (ug chitinase/g tissue) ([2]; line Nco-16 (2001/NcoChit), seven days, water 0.555, buffer 0.566): 0.555 ug chitinase/g tissue | ELISA ASSAY RESULTS (ug chitinase/g tissue) ([2]; line Nco-17 (2001/NcoChit), seven days, water —, buffer —): — | ELISA ASSAY RESULTS (ug chitinase/g tissue) ([2]; line Sal-2 (2001/SalChit), seven days, water —, buffer —): — | ELISA ASSAY RESULTS (ug chitinase/g tissue) ([2]; line Sal-3 (2001/SalChit), seven days, water —, buffer —): — | ELISA ASSAY RESULTS (ug chitinase/g tissue) ([2]; line Sal-4 (2001/SalChit), seven days, water —, buffer —): 0.047 ug chitinase/g tissue | ELISA ASSAY RESULTS (ug chitinase/g tissue) ([2]; line Sal-5 (2001/SalChit), seven days, water —, buffer —): — | ELISA ASSAY RESULTS (ug chitinase/g tissue) ([2]; line Sal-7 (2001/SalChit), seven days, water —, buffer —): — | ELISA ASSAY RESULTS (ug chitinase/g tissue) ([2]; line Sal-8 (2001/SalChit), seven days, water —, buffer —): — | ELISA ASSAY RESULTS (ug chitinase/g tissue) ([2]; line Sal-9 (2001/SalChit), seven days, water —, buffer —): 1.052 ug chitinase/g tissue | ELISA ASSAY RESULTS (ug chitinase/g tissue) ([2]; line Sal-11 (2001/SalChit), seven days, water —, buffer —): — | ELISA ASSAY RESULTS (ug chitinase/g tissue) ([2]; line Sal-12 (2001/SalChit), seven days, water —, buffer —): — | ELISA ASSAY RESULTS (ug chitinase/g tissue) ([2]; line Sal-13 (2001/SalChit), seven days, water —, buffer —): — | ELISA ASSAY RESULTS (ug chitinase/g tissue) ([2]; line Sal-14 (2001/SalChit), seven days, water —, buffer —): — | ELISA ASSAY RESULTS (ug chitinase/g tissue) ([2]; line Sal-15 (2001/SalChit), seven days, water —, buffer —): —

From patent US6632981B1, “DNA sequences encoding polypeptides having beta-1,3-glucanase activity” (Novartis Finance Corporation, priority 1988, dated 2003)
